Assay results reported in patent publication US12465602B2, “Use of an opioid molecule for treating dry eye and eyes suffering from allergies” (H4 ORPHAN PHARMA, priority 2019, dated 2025).
Where two headings read alike, the source gives them in different places.

Assays:
[1] = molecular target: T1, non-mutated CFTR (Homo sapiens, UniProt P13569); assay: Ussing chamber short-circuit current on lacrimal gland epithelial cells expressing non-mutated CFTR; type: cell-based
T1 construct: endogenous in cells; host or cells: human glandular (lacrimal gland) epithelial cells, polarised on Snapwell filters
Text: To study this action on the modulation of CFTR, the inventors have used the Ussing chamber method, invented by the Danish Hans H. Ussing at the end of the 1950s. This technique allows studying ionic exchanges through an epithelium, as they allow maintaining the tissue of interest in survival for a few hours under controlled conditions of temperature and medium. The positioning of the tissue between two half-chambers allows defining an apical compartment (corresponding to the lumen of the organ) and a basolateral compartment (corresponding to the blood compartment) and studying the exchanges between these two compartments via the tissue.
This technique is commonly used and it is particularly well-suited for a pharmacological approach of ionic transports and to search for molecules of therapeutic interest in the context of ionic secretions from epithelial cells. It consists in measuring the transepithelial current (called short-circuit and denoted Ise). Ise is expressed in amperes relative to the unit surface area of the epithelium (Ise in μA/cm2). The cells are cultured on a porous filter for 10 to 15 days at the liquid-liquid then air-liquid interface in order to mimic conditions close to in vivo. The transepithelial resistance is regularly measured during the culture. The higher this resistance (several hundred ohms), the more the epithelial tissue is contiguous, polarised and therefore tight. At the Air (apical side)—Liquid (basolateral side) interface, the epithelial cells polarise and form a tight mat that can be studied with the Ussing chamber technique. We have used a system with 6 vats from Physiologie Instrument@ enabling 6 experiments in parallel.
The inventors have prepared a 100 μM stock solution in DMSO.

[2] = test system: basophils; assay: Basophil activation test (Flow CAST kit), CD63 expression by flow cytometry after anti-FcεRI stimulation; type: cell-based, human; conditions: noscapine 10 μM, whole blood, FIG. 9
Text: These two cells intervene in the IgE-dependent allergic reaction; they express the high-affinity IgE receptor. Nevertheless, the mediators released by these cells during this activation are different for some of them. Moreover, basophils and especially mast cells intervene in innate immunity. Thus, basophils and mast cells have many characteristics in common and more particularly, the secretion of IL4 and IL13 which are known to induce the stimulation of collagen synthesis and the proliferation of fibroblasts responsible for fibrosis. Fibrosis can affect the Meibomian glands in dry eye and allergic eye. […]
It is designed for the in vitro diagnosis of the expression of the CD63 marker as a surface marker of activated basophils. The test is carried out on whole blood; flow cytometry allows quantifying the expression of CD63 at the surface of activated basophils. […]
This granularity may be due to irregularities inside or at the surface of the cells or to the density of the organelles that compose it (acess.ens-lyon.fr). Afterwards, fluorescence markers allow better characterising the different cell subpopulations (these markers are coupled with the differentiation clusters). […] The latter has been analysed in order to observe the expected results in the absence of stimulation and therefore of degranulation. […]

[3] = cited from earlier work

T1 sequence (P13569 whole entry, change not shown): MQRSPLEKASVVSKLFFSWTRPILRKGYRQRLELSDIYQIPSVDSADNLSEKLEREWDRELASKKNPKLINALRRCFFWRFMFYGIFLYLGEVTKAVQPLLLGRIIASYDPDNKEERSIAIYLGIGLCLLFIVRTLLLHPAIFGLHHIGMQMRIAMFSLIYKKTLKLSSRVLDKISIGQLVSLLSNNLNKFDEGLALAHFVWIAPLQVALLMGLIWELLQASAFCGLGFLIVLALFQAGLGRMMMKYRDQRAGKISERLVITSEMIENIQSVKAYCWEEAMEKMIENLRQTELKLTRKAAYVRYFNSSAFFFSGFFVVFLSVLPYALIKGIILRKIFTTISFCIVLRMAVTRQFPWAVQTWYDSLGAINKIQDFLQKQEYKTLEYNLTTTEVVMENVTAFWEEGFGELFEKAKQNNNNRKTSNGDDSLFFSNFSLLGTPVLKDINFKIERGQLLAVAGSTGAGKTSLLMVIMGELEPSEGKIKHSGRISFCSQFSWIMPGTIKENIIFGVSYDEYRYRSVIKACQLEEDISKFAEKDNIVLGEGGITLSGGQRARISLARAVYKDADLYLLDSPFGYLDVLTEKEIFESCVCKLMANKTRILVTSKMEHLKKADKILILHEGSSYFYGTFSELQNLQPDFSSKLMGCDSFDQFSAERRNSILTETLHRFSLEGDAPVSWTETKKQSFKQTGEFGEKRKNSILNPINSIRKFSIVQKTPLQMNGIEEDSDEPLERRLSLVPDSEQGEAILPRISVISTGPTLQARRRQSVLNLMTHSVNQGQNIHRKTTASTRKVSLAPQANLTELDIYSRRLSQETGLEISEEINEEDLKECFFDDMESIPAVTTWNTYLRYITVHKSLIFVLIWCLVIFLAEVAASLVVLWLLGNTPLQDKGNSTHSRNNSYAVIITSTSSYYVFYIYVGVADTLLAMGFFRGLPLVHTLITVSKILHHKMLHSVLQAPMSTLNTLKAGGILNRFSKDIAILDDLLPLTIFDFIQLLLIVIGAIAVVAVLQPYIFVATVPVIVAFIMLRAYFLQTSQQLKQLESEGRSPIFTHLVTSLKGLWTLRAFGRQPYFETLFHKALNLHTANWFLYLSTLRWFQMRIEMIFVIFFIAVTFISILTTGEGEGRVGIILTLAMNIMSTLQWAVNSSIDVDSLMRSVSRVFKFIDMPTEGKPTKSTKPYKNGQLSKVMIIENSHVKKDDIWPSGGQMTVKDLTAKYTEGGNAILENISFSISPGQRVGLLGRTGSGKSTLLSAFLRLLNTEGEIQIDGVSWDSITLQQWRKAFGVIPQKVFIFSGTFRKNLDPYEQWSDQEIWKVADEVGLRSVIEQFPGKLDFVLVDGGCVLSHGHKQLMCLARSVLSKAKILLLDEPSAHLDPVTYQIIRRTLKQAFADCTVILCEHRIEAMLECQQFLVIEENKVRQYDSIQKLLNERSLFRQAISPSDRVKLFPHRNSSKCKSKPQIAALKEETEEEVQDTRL

## COc1ccc2c(c1OC)C(=O)O[C@@H]2[C@H]1c2c(cc3c(c2OC)OCO3)CCN1C [noscapine, (3S)-6,7-dimethoxy-3-[(5R)-4-methoxy-6-methyl-7,8-dihydro-5H-[1,3]dioxolo[4,5-g]isoquinolin-5-yl]-3H-2-benzofuran-1-one]
[1]; 10 μM noscapine, non-mutated epithelial cells, apical side, switches from 16
  short-circuit current differential after addition of noscapine, apical side: more than 20 μA/cm2
[1]; 10 μM noscapine, non-mutated lacrimal gland epithelial cells, printed apical side, switches from 6.5
  short-circuit current differential after addition of noscapine, second series: more than 7.5 μA/cm2
[1]; apical pole, FIG. 2, read-out: EC50 activity for the apical pole
  EC50: 3.42 µM
[1]; basal pole, FIG. 3, read-out: EC50 for the basal pole
  EC50: 4.87 µM
[2]
  inhibition of basophil degranulation caused by anti-FcεRI antibody (CD63+ CCR3+): blocks the activation of basophil degranulation
[3]; benzene and acetone
  solubility in organic solvents: soluble in benzene and acetone
[3]; water
  solubility in water: Insoluble in water

## O=C(O)c1ccc(C=C2SC(=S)N(c3cccc(C(F)(F)F)c3)C2=O)cc1 [Inh172]
[1]; Inh172 10 μM, first series (apical side)
  effect of Inh172 on cellular potential: completely blocks the cellular potential
[1]; Inh172 10 μM, lacrimal gland epithelial cells
  effect of Inh172 on cellular potential, second series: completely blocks the cellular potential
